Source: article PMC4860631, “Pharmacokinetics and tolerability of NSC23925b, a novel P-glycoprotein inhibitor: preclinical study in mice and rats” (Scientific Reports, 2016)
Like-named read-outs stand apart in the source and are kept apart here.

How the values were obtained:
[1] = male, Sprague-Dawley, rat, in vivo
CYP2D6 = CYP2D6 (Homo sapiens, UniProt P10635); assay: HLM-LC-MS CYP450 inhibition assay, CYP2D6
Method: (§1) A sigmoid-shaped curve (Log(inhibitor) vs. Response-Variable slope) was fitted to the data and the IC50 was calculated using GraphPad Prism software.
(§2) This assay used a cocktail of drug-probe substrates that are specific to each isozyme with HLM and LC-MS detection[33][34]. Each test article and reference inhibitor was dissolved in 40% DMSO and 60% acetonitrile (ACN) mixture. […] Substrates were then added to their respective well containing the compound/HLM solution to start the reaction. […] The solution was centrifuged at 4 °C for 30 min at 3,700 rpm and the supernatant was transferred for LC-MS analysis. The concentrations of the metabolites were determined from standard curves using commercially available metabolite standards. Compounds were tested in triplicate. The half maximal inhibitory concentration (IC50) values were determined by plotting the metabolite formation over the logarithm of the compound concentration using Prism 5.0 software (GraphPad Software Inc., San Diego, CA).

CYP2C8 = biological target: T1, CYP2C8 (Homo sapiens, UniProt P10632); assay: HLM-LC-MS CYP450 inhibition assay, CYP2C8; assay type: in vitro ADME
T1 construct: from tissue; host or cells: human liver microsomes
T1 sequence (P10632 1-490): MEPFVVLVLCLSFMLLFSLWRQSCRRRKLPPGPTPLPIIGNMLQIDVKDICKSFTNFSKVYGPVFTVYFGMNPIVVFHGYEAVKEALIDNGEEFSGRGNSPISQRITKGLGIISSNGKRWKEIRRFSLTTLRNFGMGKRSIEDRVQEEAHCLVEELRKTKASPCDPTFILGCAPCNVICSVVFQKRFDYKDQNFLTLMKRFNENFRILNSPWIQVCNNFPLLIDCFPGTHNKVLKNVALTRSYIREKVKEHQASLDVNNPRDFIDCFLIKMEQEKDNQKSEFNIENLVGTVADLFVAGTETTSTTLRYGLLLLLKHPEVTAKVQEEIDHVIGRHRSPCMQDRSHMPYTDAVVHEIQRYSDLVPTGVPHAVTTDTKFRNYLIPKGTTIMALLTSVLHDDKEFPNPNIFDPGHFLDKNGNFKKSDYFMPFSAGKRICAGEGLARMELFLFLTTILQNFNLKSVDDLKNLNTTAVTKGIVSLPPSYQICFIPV
Method: as §1, §2

in vivo = conditions: male, Sprague-Dawley, rat; for AUC(0-inf): AUC0-inf; for AUC(0-t): AUC0-t; for k el: Kel; for half-life: t1/2
CYP2B6 = biological target: T2, CYP2B6 (Homo sapiens, UniProt P20813); assay: HLM-LC-MS CYP450 inhibition assay, CYP2B6; assay type: in vitro ADME
T2 construct: from tissue; host or cells: human liver microsomes
T2 sequence (P20813 1-491): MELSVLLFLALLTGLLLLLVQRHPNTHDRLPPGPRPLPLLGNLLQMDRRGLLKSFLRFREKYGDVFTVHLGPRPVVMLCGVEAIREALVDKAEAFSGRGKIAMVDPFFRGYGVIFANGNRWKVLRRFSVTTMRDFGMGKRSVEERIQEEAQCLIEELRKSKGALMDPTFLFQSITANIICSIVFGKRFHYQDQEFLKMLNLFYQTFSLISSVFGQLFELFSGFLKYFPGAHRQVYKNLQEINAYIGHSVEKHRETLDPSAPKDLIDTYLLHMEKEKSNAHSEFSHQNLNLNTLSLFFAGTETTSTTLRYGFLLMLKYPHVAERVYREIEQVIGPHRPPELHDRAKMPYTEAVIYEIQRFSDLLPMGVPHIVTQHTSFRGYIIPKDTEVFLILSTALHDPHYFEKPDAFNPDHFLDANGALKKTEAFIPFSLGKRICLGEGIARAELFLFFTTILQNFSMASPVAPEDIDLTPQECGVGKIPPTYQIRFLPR
Method: Compounds were tested in triplicate.

CYP2D6, sequence (P10635 whole entry): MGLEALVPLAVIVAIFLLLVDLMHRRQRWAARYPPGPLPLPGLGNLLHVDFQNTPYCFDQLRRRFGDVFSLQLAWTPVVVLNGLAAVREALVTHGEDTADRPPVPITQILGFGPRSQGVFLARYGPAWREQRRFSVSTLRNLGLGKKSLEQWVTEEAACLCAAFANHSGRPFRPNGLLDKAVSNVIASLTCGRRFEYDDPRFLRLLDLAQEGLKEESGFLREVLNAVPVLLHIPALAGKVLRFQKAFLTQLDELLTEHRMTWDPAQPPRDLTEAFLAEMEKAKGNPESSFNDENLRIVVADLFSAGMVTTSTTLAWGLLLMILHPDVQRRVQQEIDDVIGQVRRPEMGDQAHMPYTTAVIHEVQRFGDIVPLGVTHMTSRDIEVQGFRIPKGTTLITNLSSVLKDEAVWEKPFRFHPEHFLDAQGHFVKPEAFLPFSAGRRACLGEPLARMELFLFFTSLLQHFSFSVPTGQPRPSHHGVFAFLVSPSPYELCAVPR

Compound: COc1ccc(-c2cc(C(O)C3CCCCN3)c3ccccc3n2)cc1 (stereo not drawn) [NSC23925b, (2-(4-methoxyphenyl)-4-quinolinyl)(2-piperidinyl)methanol]
- AUMC0-inf ([1]; ip, 5 mg/kg): 38450 ± 36415 h·h·ng·mL^−1
- AUMC0-t ([1]; ip, 5 mg/kg): 13328 ± 5611 h·h·ng·mL^−1
- F ([1]; ip, 5 mg/kg): 110.6 ± 47.4%
- AUMC0-inf ([1]; iv, 2.5 mg/kg): 10502 ± 642 h·h·ng·mL^−1
- AUMC0-t ([1]; iv, 2.5 mg/kg): 5504 ± 317 h·h·ng·mL^−1
- MRTIV ([1]; iv, 2.5 mg/kg): 11.7 ± 0.512 h
- IC50 (CYP2D6; Compound IC50, HLM, substrate bufuralol 10 μM): 1.41 µM
- CYP inhibitor class (CYP2D6; HLM, bufuralol): moderate (1–10 μM)
- CYP inhibitor class (CYP2C8): weak (IC50 values of >10 μM)
- IC50 (CYP2C8; substrate paclitaxel 10 μM, 6α-hydroxylation, read-out: Compound IC50): > 10 µM
- Cmax (in vivo; ip, 5 mg/kg): 128 ± 44.3 ng/mL
- AUC(0-inf) (in vivo; ip, 5 mg/kg): 1990 ± 855 ng·h/mL
- AUC(0-t) (in vivo; ip, 5 mg/kg): 1390 ± 173 ng·h/mL
- k el (in vivo; ip, 5 mg/kg): 2.29e-05 s⁻¹
- half-life (in vivo; ip, 5 mg/kg): 9.24 ± 3.77 h
- Tmax (in vivo; ip, 5 mg/kg, tmax): ~2.17 h
- AUC(0-inf) (in vivo; iv, 2.5 mg/kg): 902 ± 57.4 ng·h/mL
- AUC(0-t) (in vivo; iv, 2.5 mg/kg): 766 ± 51.9 ng·h/mL
- clearance (in vivo; iv, 2.5 mg/kg, CL): 46.3 ± 3.06 mL/min/kg
- k el (in vivo; iv, 2.5 mg/kg): 2.18e-05 s⁻¹
- Vd (in vivo; iv, 2.5 mg/kg, VdSS): 32.4 ± 3.06 L/kg
- half-life (in vivo; iv, 2.5 mg/kg): 8.86 ± 0.541 h
- CYP inhibitor class (CYP2B6; bupropion): moderate (1–10 μM)
- IC50 (CYP2B6; substrate bupropion 70 μM, hydroxylation, read-out: Compound IC50): 8.59 µM
